In this experiment the target is T1, PD-1/PD-L1 interaction (PD-1-Ig / PD-L1-His) (Homo sapiens, UniProt Q9NZQ7).
T1 construct: TVMV protease site (linker) (C); made in house; host or cells: HEK293T cells
Briefly: PD-1/PD-L1 Homogenous Time-Resolved Fluorescence (HTRF) binding assay. The conditions noted are these: PD-L1-His 10 nM final, PD-1-Ig 20 nM final; inhibitors pre-incubated with PD-L1-His for 15 m. The text has this:
The ability of the compounds of formula (I) to bind to PD-L1 was investigated using a PD-1/PD-L1 Homogenous Time-Resolved Fluorescence (HTRF) binding assay.
The interaction of PD-1 and PD-L1 can be assessed using soluble, purified preparations of the extracellular domains of the two proteins. The PD-1 and PD-L1 protein extracellular domains were expressed as fusion proteins with detection tags, for PD-1, the tag was the Fc portion of Immunoglobulin (PD-1-Ig) and for PD-L1 it was the 6 histidine motif (PD-L1-His). All binding studies were performed in an HTRF assay buffer consisting of dPBS supplemented with 0.1% […] bovine serum albumin and 0.05% (v/v) Tween-20. For the h/PD-L1-His binding assay, inhibitors were pre-incubated with PD-L1-His (10 nM final) for 15 m in 4 μl of assay buffer, followed by addition of PD-1-Ig (20 nM final) in 1 μl of assay buffer and further incubation for 15 m. HTRF detection was achieved using europium crypate-labeled anti-Ig (1 nM final) and allophycocyanin (APC) labeled anti-His (20 nM final). Antibodies were diluted in HTRF detection buffer and 5 μl was dispensed on top of the binding reaction. The reaction mixture was allowed to equilibrate for 30 minutes and the resulting signal (665 nm/620 nm ratio) was obtained using an EnVision fluorometer. Additional binding assays were established between the human proteins PD-1-Ig/PD-L2-His (20 & 5 nM, respectively) and CD80-His/PD-L1-Ig (100 & 10 nM, respectively).
Recombinant Proteins: Human PD-1 (25-167) with a C-terminal human Fc domain of immunoglobulin G (Ig) epitope tag [hPD-1 (25-167)-3S-IG] and human PD-L1 (18-239) with a C-terminal His epitope tag [hPD-L1(18-239)-TVMV-His] were expressed in HEK293T cells and purified sequentially by ProteinA affinity chromatography and size exclusion chromatography. Human PD-L2-His and CD80-His was obtained through commercial sources.
Table 1 lists the IC50 values for representative examples of this disclosure measured in the PD-1/PD-L1 Homogenous Time-Resolved Fluorescence (HTRF) binding assay.

Where a SMILES comes first, the peptide text is derived from it. Bridges are numbered along the chain shown (N, C = ends). [ ]: non-standard residue; d: D form. The star is where a group is joined. Trp(1-CH2COOH) = N[C@@H](Cc1cn(CC(=O)O)c2ccccc12)C(=O)O; X22 = Cc1ccc2c(c1)[nH]c1nc(Cl)nc(*)c12; Hyp = O=C(O)[C@@H]1C[C@@H](O)CN1; X10 = c1ccc2c(c1)sc1ncnc(*)c12; X13 = Clc1ccc2oc3c(*)ncnc3c2c1; X16 = c1ccc2c(c1)sc1c(*)ncnc12; X2 = CSc1nc(*)c2sc3ccccc3c2n1; X5 = c1ccc2c(c1)oc1c(*)ncnc12; NMeNle = CCCC[C@H](NC)C(=O)O; X4 = c1nc(*)c2c3c(sc2n1)CCC3; NMeA = CN[C@@H](C)C(=O)O; Dab = NCC[C@H](N)C(=O)O; Dap = NC[C@H](N)C(=O)O

T1 sequence (Q9NZQ7 18-239): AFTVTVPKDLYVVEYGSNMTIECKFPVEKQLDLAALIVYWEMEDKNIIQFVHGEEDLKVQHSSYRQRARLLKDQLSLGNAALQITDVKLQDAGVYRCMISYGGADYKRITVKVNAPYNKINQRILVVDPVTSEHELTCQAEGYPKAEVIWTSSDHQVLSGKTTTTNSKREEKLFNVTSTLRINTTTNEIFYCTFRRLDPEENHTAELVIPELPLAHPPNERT

Take `CCCC[C@H]1C(=O)N(C)[C@@H](CCCC)C(=O)N[C@@H](CC(C)C)C(=O)N[C@H](C(=O)NCC(N)=O)CSCC(=O)N[C@@H](Cc2ccc(O)cc2)C(=O)N(C)[C@@H](C)C(=O)N[C@@H](CC(N)=O)C(=O)N2CCC[C@H]2C(=O)N[C@@H](CNc2ncnc3c2oc2ccc(Cl)cc23)C(=O)N[C@@H](CC(C)C)C(=O)N2C[C@H](O)C[C@H]2C(=O)N[C@@H](Cc2c[nH]c3ccccc23)C(=O)N[C@@H](CCNc2ncnc3c2oc2ccc(Cl)cc23)C(=O)N[C@@H](Cc2cn(CC(=O)O)c3ccccc23)C(=O)N1C` [Compound 21006] ({CH2CO}-Y[NMeA]NP[Dap](X13)L[Hyp]W[Dab](X13)[Trp(1-CH2COOH)][NMeNle][NMeNle]LCG-NH2; thioether N-14): the IC50 stood at 12 nM.
To `CCCC[C@H]1C(=O)N(C)[C@@H](CCCC)C(=O)N[C@@H](CC(C)C)C(=O)N[C@H](C(=O)NCC(N)=O)CSCC(=O)N[C@@H](Cc2ccc(O)cc2)C(=O)N(C)[C@@H](C)C(=O)N[C@@H](CC(N)=O)C(=O)N2CCC[C@H]2C(=O)N[C@@H](CNc2nc(Cl)nc3[nH]c4cc(C)ccc4c23)C(=O)N[C@@H](CC(C)C)C(=O)N2C[C@H](O)C[C@H]2C(=O)N[C@@H](Cc2c[nH]c3ccccc23)C(=O)N[C@@H](CCN)C(=O)N[C@@H](Cc2cn(CC(=O)O)c3ccccc23)C(=O)N1C` [Compound 21007] ({CH2CO}-Y[NMeA]NP[Dap](X22)L[Hyp]W[Dab][Trp(1-CH2COOH)][NMeNle][NMeNle]LCG-NH2; thioether N-14) belongs 4.4 nM; to `CCCC[C@H]1C(=O)N(C)[C@@H](CCCC)C(=O)N[C@@H](CC(C)C)C(=O)N[C@H](C(=O)NCC(N)=O)CSCC(=O)N[C@@H](Cc2ccc(O)cc2)C(=O)N(C)[C@@H](C)C(=O)N[C@@H](CC(N)=O)C(=O)N2CCC[C@H]2C(=O)N[C@@H](CNc2nc(SC)nc3c2sc2ccccc23)C(=O)N[C@@H](CC(C)C)C(=O)N2C[C@H](O)C[C@H]2C(=O)N[C@@H](Cc2c[nH]c3ccccc23)C(=O)N[C@@H](CCN)C(=O)N[C@@H](Cc2cn(CC(=O)O)c3ccccc23)C(=O)N1C` [Compound 21008] ({CH2CO}-Y[NMeA]NP[Dap](X2)L[Hyp]W[Dab][Trp(1-CH2COOH)][NMeNle][NMeNle]LCG-NH2; thioether N-14), 6.5 nM; to `CCCC[C@H]1C(=O)N(C)[C@@H](CCCC)C(=O)N[C@@H](CC(C)C)C(=O)N[C@H](C(=O)NCC(N)=O)CSCC(=O)N[C@@H](Cc2ccc(O)cc2)C(=O)N(C)[C@@H](C)C(=O)N[C@@H](CC(N)=O)C(=O)N2CCC[C@H]2C(=O)N[C@@H](CNc2nc(SC)nc3c2sc2ccccc23)C(=O)N[C@@H](CC(C)C)C(=O)N2C[C@H](O)C[C@H]2C(=O)N[C@@H](Cc2c[nH]c3ccccc23)C(=O)N[C@@H](CCNc2nc(SC)nc3c2sc2ccccc23)C(=O)N[C@@H](Cc2cn(CC(=O)O)c3ccccc23)C(=O)N1C` [Compound 21009] ({CH2CO}-Y[NMeA]NP[Dap](X2)L[Hyp]W[Dab](X2)[Trp(1-CH2COOH)][NMeNle][NMeNle]LCG-NH2; thioether N-14), 136 nM.
To `CCCC[C@H]1C(=O)N(C)[C@@H](CCCC)C(=O)N[C@@H](CC(C)C)C(=O)N[C@H](C(=O)NCC(N)=O)CSCC(=O)N[C@@H](Cc2ccc(O)cc2)C(=O)N(C)[C@@H](C)C(=O)N[C@@H](CC(N)=O)C(=O)N2CCC[C@H]2C(=O)N[C@@H](CNc2ncnc3c2oc2ccccc23)C(=O)N[C@@H](CC(C)C)C(=O)N2C[C@H](O)C[C@H]2C(=O)N[C@@H](Cc2c[nH]c3ccccc23)C(=O)N[C@@H](CCNc2ncnc3c2oc2ccccc23)C(=O)N[C@@H](Cc2cn(CC(=O)O)c3ccccc23)C(=O)N1C` [Compound 21010] ({CH2CO}-Y[NMeA]NP[Dap](X5)L[Hyp]W[Dab](X5)[Trp(1-CH2COOH)][NMeNle][NMeNle]LCG-NH2; thioether N-14) belongs 3.9 nM.
Compound `CCCC[C@H]1C(=O)N(C)[C@@H](CCCC)C(=O)N[C@@H](CC(C)C)C(=O)N[C@H](C(=O)NCC(N)=O)CSCC(=O)N[C@@H](Cc2ccc(O)cc2)C(=O)N(C)[C@@H](C)C(=O)N[C@@H](CC(N)=O)C(=O)N2CCC[C@H]2C(=O)N[C@@H](CNc2ncnc3sc4c(c23)CCC4)C(=O)N[C@@H](CC(C)C)C(=O)N2C[C@H](O)C[C@H]2C(=O)N[C@@H](Cc2c[nH]c3ccccc23)C(=O)N[C@@H](CCN)C(=O)N[C@@H](Cc2cn(CC(=O)O)c3ccccc23)C(=O)N1C` [Compound 21011] ({CH2CO}-Y[NMeA]NP[Dap](X4)L[Hyp]W[Dab][Trp(1-CH2COOH)][NMeNle][NMeNle]LCG-NH2; thioether N-14) showed a half-inhibitory concentration (IC50) of 2.6 nM.
To `CCCC[C@H]1C(=O)N(C)[C@@H](CCCC)C(=O)N[C@@H](CC(C)C)C(=O)N[C@H](C(=O)NCC(N)=O)CSCC(=O)N[C@@H](Cc2ccc(O)cc2)C(=O)N(C)[C@@H](C)C(=O)N[C@@H](CC(N)=O)C(=O)N2CCC[C@H]2C(=O)N[C@@H](CNc2ncnc3sc4c(c23)CCC4)C(=O)N[C@@H](CC(C)C)C(=O)N2C[C@H](O)C[C@H]2C(=O)N[C@@H](Cc2c[nH]c3ccccc23)C(=O)N[C@@H](CCNc2ncnc3sc4c(c23)CCC4)C(=O)N[C@@H](Cc2cn(CC(=O)O)c3ccccc23)C(=O)N1C` [Compound 21012] ({CH2CO}-Y[NMeA]NP[Dap](X4)L[Hyp]W[Dab](X4)[Trp(1-CH2COOH)][NMeNle][NMeNle]LCG-NH2; thioether N-14) belongs 14 nM; to `CCCC[C@H]1C(=O)N(C)[C@@H](CCCC)C(=O)N[C@@H](CC(C)C)C(=O)N[C@H](C(=O)NCC(N)=O)CSCC(=O)N[C@@H](Cc2ccc(O)cc2)C(=O)N(C)[C@@H](C)C(=O)N[C@@H](CC(N)=O)C(=O)N2CCC[C@H]2C(=O)N[C@@H](CNc2ncnc3c2oc2ccccc23)C(=O)N[C@@H](CC(C)C)C(=O)N2C[C@H](O)C[C@H]2C(=O)N[C@@H](Cc2c[nH]c3ccccc23)C(=O)N[C@@H](CCN)C(=O)N[C@@H](Cc2cn(CC(=O)O)c3ccccc23)C(=O)N1C` [Compound 21013] ({CH2CO}-Y[NMeA]NP[Dap](X5)L[Hyp]W[Dab][Trp(1-CH2COOH)][NMeNle][NMeNle]LCG-NH2; thioether N-14), 3.4 nM.
As for `CCCC[C@H]1C(=O)N(C)[C@@H](CCCC)C(=O)N[C@@H](CC(C)C)C(=O)N[C@H](C(=O)NCC(N)=O)CSCC(=O)N[C@@H](Cc2ccc(O)cc2)C(=O)N(C)[C@@H](C)C(=O)N[C@@H](CC(N)=O)C(=O)N2CCC[C@H]2C(=O)N[C@@H](CNc2ncnc3c2sc2ccccc23)C(=O)N[C@@H](CC(C)C)C(=O)N2C[C@H](O)C[C@H]2C(=O)N[C@@H](Cc2c[nH]c3ccccc23)C(=O)N[C@@H](CCNc2ncnc3c2sc2ccccc23)C(=O)N[C@@H](Cc2cn(CC(=O)O)c3ccccc23)C(=O)N1C` [Compound 21014] ({CH2CO}-Y[NMeA]NP[Dap](X16)L[Hyp]W[Dab](X16)[Trp(1-CH2COOH)][NMeNle][NMeNle]LCG-NH2; thioether N-14), the figure is 5.7 nM; as for `CCCC[C@H]1C(=O)N(C)[C@@H](CCCC)C(=O)N[C@@H](CC(C)C)C(=O)N[C@H](C(=O)NCC(N)=O)CSCC(=O)N[C@@H](Cc2ccc(O)cc2)C(=O)N(C)[C@@H](C)C(=O)N[C@@H](CC(N)=O)C(=O)N2CCC[C@H]2C(=O)N[C@@H](CNc2ncnc3sc4ccccc4c23)C(=O)N[C@@H](CC(C)C)C(=O)N2C[C@H](O)C[C@H]2C(=O)N[C@@H](Cc2c[nH]c3ccccc23)C(=O)N[C@@H](CCNc2ncnc3sc4ccccc4c23)C(=O)N[C@@H](Cc2cn(CC(=O)O)c3ccccc23)C(=O)N1C` [Compound 21015] ({CH2CO}-Y[NMeA]NP[Dap](X10)L[Hyp]W[Dab](X10)[Trp(1-CH2COOH)][NMeNle][NMeNle]LCG-NH2; thioether N-14), 18 nM.

The values above are taken from patent US20230022400A1, “IMMUNOMODULATORS” (Bristol-Myers Squibb Company, priority 2019, published 2023).
